# Measured values as given in article PMC6271218, “Pharmacokinetics, Tissue Distribution and Excretion of Verticinone from F. hupehensis in Rats” (Molecules, 2014).
# Like-named read-outs stand apart in the source and are kept apart here.
# Columns and labels:
# [1] = parameters: method as in PMID 19417735; settings: mice; cited from earlier work
# [2] = Single-dose plasma pharmacokinetics after i.g. administration; type: in vivo, SD rats; settings: for bioavailability / AUC(0-inf) / AUC(0-t) / Tmax / MRT last / Vd/F / half-life / Cmax: SD, rat, plasma; for bioavailability: oral, i.g. vs i.v., read-out: absolute (oral) bioavailability; for AUC(0-inf) / AUC(0-t) / Tmax / MRT last / Vd/F / half-life / Cmax: po; for MRT last: read-out: MRT0–t; for Vd/F: read-out: Vz/F; for half-life: read-out: t1/2z (converted); for Cmax: n = 5; for relationship between dosages and AUC0–t in plasma: oral 1, 2 and 4 mg/kg
# Protocol: Pharmacokinetic studies of verticinone after intravenous (i.v.) and intragastrical (i.g.) administration to rats were designed to determine pharmacokinetic parameters and absolute bioavailability. For i.g administration, verticinone was suspended in 0.5% carboxymethyl cellulose sodium (CMC-Na) to final concentrations of 0.2, 0.4 and 0.8 mg/mL. Verticinone was dissolved in 20% ethanol/80% water to final concentration of 0.08 mg/mL for i.v. administration. For the i.v. group, five male and five female rats received a single dose of 0.4 mg/kg. Blood samples (0.25 mL) were obtained at 0, 4, 15, 30, 45, 60, 120, 240, 360, 480, 600 and 720 min after injection. For the single- i.g. group, fifteen male and fifteen female rats were divided into three groups, and each group received a single oral dose of 1, 2 and 4 mg/kg of verticinone, respectively. In addition, another five male and five female rats received multiple oral doses of 4 mg/kg/day, given as 2 mg/kg doses twice a day (one dose in the morning and the second dose 12 h later) for 7 days, then a single oral dose of 2 mg/kg on the eighth day. Blood samples (0.25 mL) were obtained at 0, 5, 15, 30, 45, 60, 90, 120, 240, 360, 480 and 720 min for male rats and at 0, 5, 10, 20, 30, 45, 60, 120, 240, 360, 480 and 720 min for female rats after oral administration (the eighth day for multiple-dose group). Blood samples were then centrifuged at 4000 rpm for 10 min, and the plasma was collected. All plasma samples were frozen and stored at −20 °C until analysis. Verticinone was isolated from plasma by liquid-liquid extraction according to our previously reported procedure.
# The quantification of verticinone was performed by a LC-MS method based on the previously reported method with slight modifications. The liquid chromatography system consisted of a model 2010 chromatograph (Shimadzu, Kyoto, Japan) equipped with a Shim-Pack VP-ODS C18 column (150 mm × 2.0 mm, 5 μm). A Shimadzu 2010 mass spectrometer (Q-array-Octapole-Quadrupole mass analyzer) equipped with an electrospray ionization interface was used for MS detection. The mobile phase consisted of (A) distilled water and (B) methanol, and the flow rate was 0.2 mL/min. Chromatography separation was achieved using a gradient elution program, as follows: 0.03→6.0 min, B% 15→85; 6.0→7.0 min, B% 85→85; 7.0→8.0 min, B% 85→15; 8.0–12.0 min, B% 15→15. The column and autosampler tray temperature were kept constant at 35 °C and 20 °C, respectively. For the determination of verticinone, the positive mode was selected, along with the conditions as follows.
# CDL voltage […], probe voltage 4.5 kV, CDL temperature 250 °C, block temperature 200 °C, gas flow 1.5 L/min. Hupehenine was used as the internal standard (IS). Both verticinone and IS were detected using selected ion monitoring (SIM) at m/z 430.25 for verticinone and m/z 416.30 for hupehenine (IS), with a dwell time of 200 ms. Blank plasma, tissue homogenate, urine, feces homogenate and bile were used to prepare the corresponding calibration curves to avoid different matrix effects.
# The pharmacokinetic parameters were calculated by the DAS 2.0 software (Chinese Pharmacological Association, Beijing, China) using a standard non-compartmental method. The Cmax and Tmax were determined from the observed data. The elimination rate constant (ke) was calculated by log-linear regression of verticinone concentrations during the terminal elimination phase and the half-life (t1/2) was calculated as 0.693/ke. The AUC0–t was calculated by the linear trapezoidal method. The AUC0–∞ was calculated as the sum of AUC0–t and the extrapolated part determined by Clast/ke. The total clearance (CL) was calculated as dose/AUC0–∞. The absolute bioavailability (F) was calculated by the following equation: F = [(AUCi.g./AUCi.v.) × (Dosei.v./Dosei.g.)] × 100%. The results were expressed as mean ± SD. Statistical analyses were performed using an unpaired Student’s t-test.
# [3] = i.g. 1 mg/kg single dose, female rats
# [4] = i.g. 1 mg/kg single dose, male rats
# [5] = i.g. 2 mg/kg single dose, female rats
# [6] = i.g. 2 mg/kg single dose, male rats
# [7] = i.g. 4 mg/kg single dose, female rats
# [8] = i.g. 4 mg/kg single dose, male rats
smiles,measurement,setting,value
"C[C@H]1CC[C@@H]2N(C1)C[C@H]1[C@@H]3C[C@H]4[C@@H](CC(=O)[C@H]5C[C@@H](O)CC[C@@]54C)[C@@H]3CC[C@@H]1[C@]2(C)O [verticinone, Verticinone]",addictive effect,[1],no addictive effect
same,bioavailability,[2]; female rats,2.74%
same,bioavailability,[2]; male rats,45.8%
same,AUC(0-inf),[2]; [3],15.3 ± 3.06 ng·h/mL
same,AUC(0-t),[2]; [3],14.5 ± 3.27 ng·h/mL
same,Tmax,[2]; [3],40.2 ± 18.6 min
same,MRT last,[2]; [3],3.59 ± 0.18 h
same,Vd/F,[2]; [3],280 ± 160 L/kg
same,half-life,[2]; [3],172 ± 77.4 min
same,AUC(0-inf),[2]; [4],167 ± 52.5 ng·h/mL
same,AUC(0-t),[2]; [4],159 ± 50.1 ng·h/mL
same,Tmax,[2]; [4],42 ± 6.6 min
same,MRT last,[2]; [4],3.21 ± 0.34 h
same,Vd/F,[2]; [4],25.5 ± 9.07 L/kg
same,half-life,[2]; [4],167 ± 51 min
same,AUC(0-inf),[2]; [5],18.8 ± 5.01 ng·h/mL
same,AUC(0-t),[2]; [5],17.3 ± 5.4 ng·h/mL
same,Tmax,[2]; [5],24 ± 21.6 min
same,MRT last,[2]; [5],3.42 ± 1.22 h
same,Vd/F,[2]; [5],649 ± 419 L/kg
same,half-life,[2]; [5],243 ± 149 min
same,AUC(0-inf),[2]; [6],475 ± 119 ng·h/mL
same,AUC(0-t),[2]; [6],446 ± 111 ng·h/mL
same,Tmax,[2]; [6],87 ± 85.2 min
same,MRT last,[2]; [6],3.62 ± 0.37 h
same,Vd/F,[2]; [6],19.4 ± 6.7 L/kg
same,half-life,[2]; [6],183 ± 46.8 min
same,AUC(0-inf),[2]; [7],27.1 ± 5.78 ng·h/mL
same,AUC(0-t),[2]; [7],26.6 ± 5.84 ng·h/mL
same,Tmax,[2]; [7],24 ± 21 min
same,MRT last,[2]; [7],2.04 ± 0.21 h
same,Vd/F,[2]; [7],387 ± 74.2 L/kg
same,half-life,[2]; [7],110 ± 34.8 min
same,AUC(0-inf),[2]; [8],769 ± 257 ng·h/mL
same,AUC(0-t),[2]; [8],737 ± 236 ng·h/mL
same,Tmax,[2]; [8],42 ± 6.6 min
same,MRT last,[2]; [8],3.19 ± 0.48 h
same,Vd/F,[2]; [8],18.6 ± 9.14 L/kg
same,half-life,[2]; [8],140 ± 51.6 min
same,Cmax,[2]; [3],3.67 ± 1.13 ng/mL
same,Cmax,[2]; [4],38.9 ± 9.34 ng/mL
same,Cmax,[2]; [5],7.45 ± 7.1 ng/mL
same,Cmax,[2]; [6],94.8 ± 17.1 ng/mL
same,Cmax,[2]; [7],12.6 ± 5.14 ng/mL
same,Cmax,[2]; [8],176 ± 45.2 ng/mL
same,relationship between dosages and AUC0–t in plasma,[2]; female rats,nonlinear dependence
same,relationship between dosages and AUC0–t in plasma,[2]; male rats,linear dependence
